# Laboratory results taken from patent US9655877B2, “Therapeutic methods for treating inflammation and immune system disorders” (priority 2009, dated 2017).
# How the values were obtained:
# Format in all cases: cell-based, murine
# [1] = test system: MAP kinases (p38, JNK, ERK 1/2); test: Phosphorylation of MAPKs in LPS-stimulated BV-2 cells, Western blot; settings: 50 μg/ml pretreatment 1 h, 100 ng/ml LPS 30 min
# Description: BV-2 cells (2×10^5 cells/ml) were pretreated with either 0.05% DMSO or 50 μg/ml senkyunolide A for 1 h, followed by treatment with 100 ng/ml LPS for another 30 min. (A) Cytoplasmic proteins were extracted and analyzed by Western Blot using antibodies specific for phospho-p38, phospho-JNK, phospho-ERK 1/2 and actin. (B) Nuclear proteins were extracted and analyzed by Western Blot against NF-kB p65 and lamin B antibodies. 10^5 cells/ml BV-2 cells were first pretreated with senkyunolide A for 1 h. After induction by 100 ng/ml LPS for 30 min, the culture medium was discarded. Cytoplasmic proteins and nuclear proteins were extracted separately by buffer A and buffer C as described in our previous report^28. The cell lysates were separated by 10% SDS-polyacrylamide gel electrophoresis and transferred to a nitrocellulose membrane (Schleicher & Schuell, Germany). The cell lysates were incubated with specific antibodies (phospho-MAP kinases, Actin, NF-kB p65 and Lamin B) overnight. After three washes, the membranes were incubated with the corresponding secondary antibodies. The bands were detected using the Enhanced Chemiluminescence System (GE Healthcare, Piscataway, N.J., USA) according to the manufacturer's instructions. […] Briefly, the effect of Sen A on mitogen-activated protein kinases (MAPKs) in the cell signaling cascade was investigated. […]
# TNF-α mRNA = TNF-α mRNA stability assay (actinomycin D) in BV-2 cells; settings: compound 1 hour, LPS 2 hours, then 1 μg/ml actinomycin
# Description: 10^5 BV-2 cells were first stimulated by 100 ng/ml LPS. After 2 h of LPS treatment, transcription inhibitor actinomycin D (Act D) at a concentration of 1 ug/ml was added to stop the mRNA synthesis. Total RNA was harvested at indicated time points after actinomycin D treatment (post-Act D). The level of TNF-α mRNA was measured by real-time quantitative RT-PCR. In addition, the effect of senkyunolide A on TNF-α mRNA stability is evaluated. Specifically, 10^5 cells/ml BV-2 cells are seeded in 24-well plates (0.5 ml in each well). Cells are treated with Sen A at various concentrations for 1 hour prior to the addition of LPS for another 2 hours, and further incubated with 1 μg/ml actinomycin for various time periods. Total RNA of the treated samples is isolated and subjected to real-time RT-PCR.
# [2] = test system: TNF-α mRNA and iNOS expression in BV-2 cells; test: TNF-α mRNA and iNOS expression in LPS-treated BV-2 cells, RT-PCR; settings: compound 1 hour before LPS for 6 hours
# Description: Semi-quantitative PCR assays of targeted genes were performed in a 25 μl reaction mixture containing 1.5 mM MgCl2, 0.2 mM of each deoxynucleoside triphosphate, 0.25 μM of each primer, 2 units of Taq polymerase (GE Healthcare), and 1 μl of cDNA. PCR primer sets for TNF-α and glyceraldehyde-3-phosphate dehydrogenase (GAPDH) were as follows. TNF-α (upstream: 5′-GGCTCCAGGCGGTGCT TGTCC-3′ (SEQ ID NO:1); downstream: 5′-[…]-3′ (SEQ ID NO:2)), and GAPDH (upstream: 5′-[…]-3′ (SEQ ID NO:3); downstream: 5′-[…]-3′ (SEQ ID NO:4). The thermal cycling condition for PCR was 94° C. for 30 s, 60° C. for 30 s, and 72° C. for 1 min. The cycling reactions were repeated for 24 more cycles.
# The levels of TNF-α mRNA and iNOS mRNA were determined by real-time RT-PCR (Roche 480II). 18S ribosomal RNA (18S) was used as an internal control. All of the real-time RT-PCR probes were obtained from the Universal Probe Library (Roche). All of the samples were performed in duplicate. […] The relative mRNA expression of the targeted genes was calculated by 2^−ΔΔCT and expressed as fold induction.
# To study the role of senkyunolide A in suppressing TNF-α production, 10^5 cells/ml BV-2 cells are seeded in 24-well plates (0.5 ml in each well). […] Total RNA of the treated samples is isolated and subjected to semi-quantitative RT-PCR assays (FIG. 9A) and quantitative RT-PCR assays (FIGS. 9B and C) using specific […] TNF-α primers.
# [3] = test system: TNF-α protein production in BV-2 cells; test: LPS-induced TNF-α protein production in BV-2 cells, ELISA; settings: 100 ng/ml LPS, 18 hours
# Description: To measure the TNF-α level in cell culture supernatants, BV-2 cells were seeded at 1×10^5 cells/ml in the volume of 0.5 ml in 24-well culture plates. They were co-treated with or without 100 ng/ml LPS in the absence or presence of indicated concentrations of bioactive compounds of LCX for 18 h. In addition, PBMac cells were seeded at 1×10^6 cells/ml in the volume of 0.5 ml in 24-well plates. After incubation, the supernatants were collected and TNF-α levels were determined by ELISA according to the manufacturer's instructions (R&D Systems).
# The role of senkyunolide A (Sen A) and Z-ligustilide (Z-Lig) in suppressing TNF-α production is further evaluated in this Example. Briefly, 5×10^4 cells/ml BV-2 cells are seeded in 24-well plates (0.5 ml in each well). Cells are treated with 0.05% DMSO; 0.05% DMSO and 100 ng/ml LPS; 50 μg/ml Sen A/Z-Lig; or 100 ng/ml LPS and Sen A/Z-Lig at a concentration of 1 μg/ml, 5 μg/ml, 10 μg/ml, 25 μg/ml, and 50 μg/ml for 18 hours, respectively. The culture supernatant is collected and the level of secreted TNF-α is measured by ELISA.
compound,measurement,setting,value
CCCC[C@H]1OC(=O)C2=C1CCC=C2 [senkyunolide A],"effect on levels of phosphorylation of MAPKs (p38, JNK, ERK 1/2)",[1],did not exert any effect
same,effect on TNF-α mRNA stability,TNF-α mRNA,destabilizes TNF-α mRNA
same,reduction of TNF-α mRNA half life,TNF-α mRNA,43%
same,effect on TNF-α mRNA expression,[2],inhibits TNF-α mRNA
same,effect on iNOS expression,[2],inhibits TNF-α mRNA and iNOS expression
same,reduction in TNF-α production,[3]; 10 μg/ml,approximately 2 fold
same,reduction in TNF-α production,[3]; 25 μg/ml,~4 fold
same,reduction in TNF-α production,[3]; 50 μg/ml,~10 fold
